Data from ChEMBL document CHEMBL1201862, “PubChem BioAssay data set” (2004).
Active and inactive are the calls of the source.

Key:
[1] = cells
[2] = non-specific 3'UTR reporter inhibition in Clone20-Shn3RL – cell-based, Renilla luciferase, cherry-picked, counter-screen for Shn3 inhibitor project, dose response (AID 624133); format: functional
[3] = Shn3 3'UTR reporter signal decrease – cell-based, Clone20 osteoblasts, firefly luciferase, cherry-pick, set 2, Schnurri-3 inhibitor project, dose response (AID 720490); format: functional;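 also: actives lower the luminescence signal as inhibitors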
[4] = reduction of Shn3 3'UTR-driven luciferase in osteoblasts – cell-based, Clone20 osteoblasts, firefly luciferase, cherry-picked, dose response (AID 624132); format: functional;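 also: firefly luciferase luminescence from reporter carrying the Shn3 3'UTR in osteoblasts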
[5] = target: Kallikrein-7 (Homo sapiens, UniProt P49862); test: Fluorescence Intensity-based biochemical primary high throughput dose response assay to identify activators of kallikrein-7 (K7) zymogen.
Sequence of Kallikrein-7 (P49862 whole entry): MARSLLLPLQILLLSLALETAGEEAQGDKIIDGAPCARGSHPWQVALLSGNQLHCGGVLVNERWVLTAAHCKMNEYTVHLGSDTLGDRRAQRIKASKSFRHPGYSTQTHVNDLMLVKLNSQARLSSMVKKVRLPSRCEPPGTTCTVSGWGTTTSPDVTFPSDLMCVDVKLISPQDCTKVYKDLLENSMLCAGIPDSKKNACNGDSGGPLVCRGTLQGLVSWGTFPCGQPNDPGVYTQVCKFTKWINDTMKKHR

[6] = optical artefact potency, substrate without enzyme – biochemical, fluorescence intensity, triplicate, artefact control for kallikrein-7 zymogen activator project, dose response (AID 720493)
[7] = viability loss in HepG2 hepatoma cells – cell-based, ATP luminescence, cherry-pick, activator set 2, cytotoxicity control, dose response (AID 1053143); format: functional
[8] = inhibition of ADAM10 peptide cleavage – biochemical, FRET peptide substrate, recombinant human ADAM10, selectivity assay for ADAM17 exosite inhibitor project, dose response (AID 743259);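 also: ADAM10 enzyme cleaving a FRET peptide substrate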
[9] = target: Disintegrin and metalloproteinase domain-containing protein 17 (Homo sapiens, UniProt P78536); test: exosite inhibitors of ADAM17, dose response, biochemical (AID 743260)
Sequence of Disintegrin and metalloproteinase domain-containing protein 17 (P78536 whole entry, the tested form may be a part): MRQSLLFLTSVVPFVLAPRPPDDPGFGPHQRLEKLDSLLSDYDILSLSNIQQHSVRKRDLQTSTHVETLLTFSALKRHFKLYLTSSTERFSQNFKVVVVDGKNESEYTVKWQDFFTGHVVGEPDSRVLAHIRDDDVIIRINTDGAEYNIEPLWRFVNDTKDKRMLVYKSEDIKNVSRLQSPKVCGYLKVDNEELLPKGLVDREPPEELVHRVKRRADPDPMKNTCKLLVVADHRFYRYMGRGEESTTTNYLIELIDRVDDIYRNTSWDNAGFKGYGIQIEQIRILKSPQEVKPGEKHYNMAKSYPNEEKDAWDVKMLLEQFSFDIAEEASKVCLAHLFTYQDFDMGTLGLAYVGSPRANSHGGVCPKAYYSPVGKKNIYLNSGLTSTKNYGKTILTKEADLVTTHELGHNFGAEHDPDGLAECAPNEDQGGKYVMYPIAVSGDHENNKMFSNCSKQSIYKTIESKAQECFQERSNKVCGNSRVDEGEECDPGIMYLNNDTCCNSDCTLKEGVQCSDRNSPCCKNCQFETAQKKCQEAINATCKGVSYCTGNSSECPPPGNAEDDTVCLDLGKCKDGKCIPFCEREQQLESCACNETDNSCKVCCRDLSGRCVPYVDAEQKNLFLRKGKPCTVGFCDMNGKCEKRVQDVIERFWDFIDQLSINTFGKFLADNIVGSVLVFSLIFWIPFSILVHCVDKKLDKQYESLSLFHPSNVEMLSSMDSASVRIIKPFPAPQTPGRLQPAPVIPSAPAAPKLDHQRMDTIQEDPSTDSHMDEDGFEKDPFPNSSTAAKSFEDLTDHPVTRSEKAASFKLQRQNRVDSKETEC

[10] = target: NAD-dependent protein deacylase sirtuin-5, mitochondrial (Homo sapiens, UniProt Q9NXA8); test: sirtuin-5 deacylation blockers, concentration series – biochemical, fluorescence imaging, cherry-pick, set 5, dose response (AID 720591);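 also: desuccinylation of succinyl peptide AMC substrate read as fluorescence after trypsin release; potency of inhibitors that lower fluorescence and may act on trypsin instead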
[11] = PAX5 cellular inhibition readout – cell-based, plate reader, dry powder samples, selectivity assay for PAX8 inhibitor project, dose response (AID 743047); format: functional;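 also: HEK293 cells carrying a Pax5 driven CD19 promoter luciferase reporter; potency of inhibitors that lower reporter luminescence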
[12] = OVCAR4 cell viability loss – plate reader, dry powder, SA11, cytotoxicity control for PAX8 inhibitor project, dose response (AID 743150); format: functional, cell-based; settings: OVCAR-4
[13] = OVCAR8 cell viability loss – plate reader, dry powder samples, PAX8 project, dose response (AID 743197); format: functional, cell-based; settings: OVCAR-8
[14] = OVCAR-3 cell viability loss – plate reader, dry powder samples, PAX8 inhibitor project, dose response (AID 743044); format: functional, cell-based
[15] = PAX8-dependent cell viability loss – plate reader, dry powder, dose response (AID 743049); format: functional, cell-based
[16] = IGROV1 cell killing – plate reader, dry powder samples, PAX8 inhibitor project, dose response (AID 743043); format: functional, cell-based; settings: IGROV-1
[17] = COV434 cell viability loss – plate reader, dry powder, SA7, cytotoxicity control for PAX8 inhibitor project, dose response (AID 743145); format: functional, cell-based
[18] = target: Paired box protein Pax-8 (Homo sapiens, UniProt Q06710); test: PAX8 transcriptional activity inhibition in RMG-I – RMG-I cells, luciferase, cherry-pick, dose response (AID 687027); format: functional, cell-based;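 also: luciferase reporter driven by Pax8 target thyroperoxidase promoter measured by SteadyGlo luminescence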
Sequence of Paired box protein Pax-8 (Q06710 whole entry): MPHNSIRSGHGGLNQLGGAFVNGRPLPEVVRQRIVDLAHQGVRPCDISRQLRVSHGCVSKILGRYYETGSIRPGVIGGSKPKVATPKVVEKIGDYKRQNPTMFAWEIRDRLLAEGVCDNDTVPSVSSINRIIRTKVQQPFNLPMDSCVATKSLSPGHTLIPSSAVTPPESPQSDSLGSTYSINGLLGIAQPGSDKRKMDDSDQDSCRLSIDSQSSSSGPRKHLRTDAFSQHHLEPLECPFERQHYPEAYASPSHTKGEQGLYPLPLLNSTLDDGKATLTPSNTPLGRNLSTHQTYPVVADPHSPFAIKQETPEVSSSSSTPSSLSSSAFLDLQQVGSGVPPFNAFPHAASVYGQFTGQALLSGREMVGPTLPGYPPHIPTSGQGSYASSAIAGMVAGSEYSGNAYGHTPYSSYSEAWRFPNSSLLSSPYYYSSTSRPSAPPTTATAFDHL

[19] = OV-90 cell viability loss – plate reader, dry powder, SA8, PAX8 inhibitor project, dose response (AID 743149); format: functional, cell-based
[20] = COV362 cell viability loss – plate reader, dry powder, SA12, cytotoxicity control for PAX8 inhibitor project, dose response (AID 743144); format: functional, cell-based
[21] = test system: HeLa; test: viability loss in HeLa cells – cell-based, ATP luminescence, cherry-pick samples, cytotoxicity control, dose response (AID 687004); format: functional; settings: Homo sapiens
[22] = Late-stage results from the probe development effort to identify antagonists of arginine vasopressin receptor 1a (AVPR1a): fluorescence-based cell-based dose response OXTR inhibition counterscreen assay.; format: functional
[23] = target: Vasopressin V1b receptor (Homo sapiens, UniProt P47901); test: Late-stage results from the probe development effort to identify antagonists of arginine vasopressin receptor 1a (AVPR1a): fluorescence-based cell-based dose response AVPR1b inhibition counterscreen assay.; format: functional
Sequence of Vasopressin V1b receptor (P47901 whole entry): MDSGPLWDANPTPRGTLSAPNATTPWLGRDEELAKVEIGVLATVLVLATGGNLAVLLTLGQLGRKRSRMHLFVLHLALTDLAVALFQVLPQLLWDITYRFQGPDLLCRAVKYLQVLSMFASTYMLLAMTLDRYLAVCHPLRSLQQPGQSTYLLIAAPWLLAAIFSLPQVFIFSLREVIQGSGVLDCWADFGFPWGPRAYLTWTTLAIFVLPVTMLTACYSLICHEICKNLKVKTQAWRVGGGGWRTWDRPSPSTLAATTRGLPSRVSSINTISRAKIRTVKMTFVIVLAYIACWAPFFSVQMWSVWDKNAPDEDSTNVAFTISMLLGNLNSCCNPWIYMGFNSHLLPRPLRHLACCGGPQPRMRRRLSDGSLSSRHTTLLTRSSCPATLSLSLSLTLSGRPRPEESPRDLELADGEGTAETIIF

[24] = Late-stage results from the probe development effort to identify antagonists of arginine vasopressin receptor 1a (AVPR1a): fluorescence-based cell-based dose response AVPR1a inhibition assay.; format: functional
[25] = target: Vasopressin V2 receptor (Homo sapiens, UniProt P30518); test: Late-stage results from the probe development effort to identify antagonists of arginine vasopressin receptor 1a (AVPR1a): fluorescence-based cell-based dose response AVPR2 inhibition counterscreen assay.; format: functional
[26] = viability reduction in hepatoma cells – cell-based, ATP luminescence, dry powder, Set4, cytotoxicity control, dose response (AID 743143); format: functional; settings: HepG2
[27] = target: Delta-type opioid receptor (Homo sapiens, UniProt P41143); test: Late-stage results from the probe development effort to identify antagonists of OPRK1: fluorescence-based cell-based dose response OPRD1 counterscreen.; format: functional
[28] = target: Mu-type opioid receptor (Homo sapiens, UniProt P35372); test: Late-stage results from the probe development effort to identify antagonists of OPRK1: luminescence-based cell-based dose response OPRM1 counterscreen.; format: functional
Sequence of Mu-type opioid receptor (P35372 whole entry): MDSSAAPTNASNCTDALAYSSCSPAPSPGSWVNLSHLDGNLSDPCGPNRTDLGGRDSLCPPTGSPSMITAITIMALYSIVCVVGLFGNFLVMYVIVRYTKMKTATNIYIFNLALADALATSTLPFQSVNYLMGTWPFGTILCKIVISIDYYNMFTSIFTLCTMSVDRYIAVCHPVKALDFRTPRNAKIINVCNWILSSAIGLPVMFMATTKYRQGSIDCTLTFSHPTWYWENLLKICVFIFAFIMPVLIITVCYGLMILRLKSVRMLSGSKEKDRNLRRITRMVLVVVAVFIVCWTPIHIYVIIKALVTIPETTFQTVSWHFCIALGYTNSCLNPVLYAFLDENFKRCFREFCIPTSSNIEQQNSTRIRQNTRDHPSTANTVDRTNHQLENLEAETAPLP

[29] = A Cell-Based Confirmatory Screen for Compounds that Inhibit VEEV, TC-83 (6).; format: functional
[30] = A Cell-Based Confirmatory Screen for Compounds that Inhibit VEEV, TC-83 (8).; format: functional
[31] = HeLa cell viability loss – plate reader, dry powder, cytotoxicity control, dose response (AID 651946); format: functional, cell-based
[32] = general mammalian cell viability loss – inhibitor set, cherry-pick, set 2, cytotoxicity control for miR-122 modulator project, dose response (AID 720697); format: functional, cell-based
[33] = Luminescence Cell-Based Dose Response HTS to Identify Inhibitors of 5'UTR Stem-Loop Driven Prion Protein mRNA Translation in H4 Neuroglioblastoma Cells. [Related pubchem assays: 1827 (Project Summary), 1813 (Primary HTS)]; format: functional
[34] = test system: Streptococcus; test: GAS UMAA2166 growth inhibition – luminescence, BacTiterGlo, counter-screen for streptokinase expression inhibitor project, dose response (AID 1915); format: functional, organism-based;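 also: potency for reduction of bacterial viability or growth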
[35] = alpha-synuclein stem-loop translation blockers – luminescence, H4 neuroglioblastoma cells, dose confirmation, confirmation (AID 2454); format: functional, cell-based;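 also: H4 neuroglioblastoma cells carrying an alpha-synuclein 5'UTR luciferase reporter; potency for inhibition of the luciferase signal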
[36] = activation of miR-122 Renilla sensor silencing – cell-based, Huh7 psiCHECK-miR122, Renilla luciferase, cherry-picked, dose response (AID 651956); format: functional;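 also: huh7 hepatoma cells stably carrying a psiCHECK-2 miR-122 sensor plasmid; renilla luciferase signal reporting endogenous miR-122 activity after 48 h compound exposure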
[37] = test system: HEK293; test: EBV LMP1 TES2 canonical NF-kB signalling blockers – cell-based, HEK293, luciferase, cherry-pick, dose response (AID 588343); format: functional; settings: Homo sapiens
[38] = test system: INS1; test: INS-1E survival protection against cytokine death – cell-based, luminescence, retest, dose response (AID 449756); format: functional; settings: Rattus norvegicus;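 also: cell death triggered by IL-1 beta plus TNF-alpha plus IFN-gamma mixture; protective hits raise ATP signal compared with cytokine alone wells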
[39] = cells; format: functional, cell-based
[40] = target: T1, Streptokinase A (Streptococcus pyogenes serotype M1, UniProt P10520); test: viability-normalized secreted streptokinase activity reduction – plasminogen activation absorbance, OD405, dose response (AID 1914); format: functional, Streptococcus pyogenes M1 GAS;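 also: secreted streptokinase activity via plasminogen activation per viability signal from cell pellet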
T1 sequence (P10520 whole entry): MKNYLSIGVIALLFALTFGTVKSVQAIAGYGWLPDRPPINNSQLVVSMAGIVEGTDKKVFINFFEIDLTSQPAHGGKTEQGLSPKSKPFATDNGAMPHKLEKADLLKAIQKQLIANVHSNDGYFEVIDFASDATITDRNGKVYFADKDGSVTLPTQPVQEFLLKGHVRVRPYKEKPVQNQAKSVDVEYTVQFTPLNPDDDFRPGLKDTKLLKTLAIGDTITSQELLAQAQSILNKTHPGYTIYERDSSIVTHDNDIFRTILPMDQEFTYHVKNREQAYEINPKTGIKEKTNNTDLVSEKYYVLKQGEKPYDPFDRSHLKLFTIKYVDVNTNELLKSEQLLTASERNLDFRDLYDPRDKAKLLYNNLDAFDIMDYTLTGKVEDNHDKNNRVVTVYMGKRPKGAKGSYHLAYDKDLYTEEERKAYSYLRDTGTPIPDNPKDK

[41] = test system: BJ; test: BJ-TERT-LT-ST fibroblast viability loss – cell-based, RAS-independent, luminescence, dose response (AID 1935); format: functional; settings: Homo sapiens;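 also: BJ fibroblasts immortalized with TERT plus LT and ST oncogenes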
[42] = test system: Streptococcus sp. 'group A'; test: Streptococcus pyogenes SK(-)GAS viability under kanamycin – luminescence, BacTiterGlo, confirmation, counter-screen for streptokinase expression inhibitor project, dose response (AID 1900); format: functional, organism-based
[43] = general mammalian cell viability loss – activator set, cherry-pick, cytotoxicity control for miR-122 modulator project, dose response (AID 720690); format: functional, cell-based;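 also: HEK293T human cells scored for general mammalian cytotoxicity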
[44] = DRD fibroblast viability loss – cell-based, non-viral oncogenic, luminescence, dose response (AID 1934); format: functional; settings: Homo sapiens
[45] = test system: BJ; test: growth inhibition of engineered Ras-driven BJ cells – cell-based, alamar blue fluorescence, cherrypicked samples, dose response (AID 2631); format: functional; settings: Homo sapiens;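 also: confirmatory dose-response assay in RAS-dependent BJ fibroblasts engineered with TERT, LT and ST, with cytotoxicity read by fluorescence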
[46] = test system: BJ; test: cells; format: functional, cell-based; settings: Homo sapiens
[47] = luciferase reporter signal suppression in cells – H4 neuroglioma cells, luminescence, dose response (AID 1990); format: functional, cell-based
[48] = test system: BJ; test: BJ-TERT fibroblast viability loss – cell-based, RAS-independent, luminescence, dose response (AID 1933); format: functional; settings: Homo sapiens
[49] = luciferase reporter signal reduction – luminescence, H4-C neuroglioblastoma cells, dose response (AID 2458); format: functional, cell-based;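 also: H4 neuroglioblastoma cells stably carrying a luciferase reporter gene fusion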
[50] = alpha-synuclein stem-loop luciferase translation blockers – H4 neuroglioma cells, luminescence, confirmation (AID 1988); format: functional, cell-based
[51] = target: Heat shock protein HSP 90-alpha (Homo sapiens, UniProt P07900); format: functional, organism-based
[52] = target: 1-phosphatidylinositol 4,5-bisphosphate phosphodiesterase gamma-1 (Homo sapiens, UniProt P19174); test: Counterscreen for inhibitors of phospholipase C isozymes (PLC-B3): Fluorescence-based biochemical high throughput dose response assay to identify inhibitors of phospholipase C isozymes (PLC-gamma1).
Sequence of 1-phosphatidylinositol 4,5-bisphosphate phosphodiesterase gamma-1 (P19174 whole entry): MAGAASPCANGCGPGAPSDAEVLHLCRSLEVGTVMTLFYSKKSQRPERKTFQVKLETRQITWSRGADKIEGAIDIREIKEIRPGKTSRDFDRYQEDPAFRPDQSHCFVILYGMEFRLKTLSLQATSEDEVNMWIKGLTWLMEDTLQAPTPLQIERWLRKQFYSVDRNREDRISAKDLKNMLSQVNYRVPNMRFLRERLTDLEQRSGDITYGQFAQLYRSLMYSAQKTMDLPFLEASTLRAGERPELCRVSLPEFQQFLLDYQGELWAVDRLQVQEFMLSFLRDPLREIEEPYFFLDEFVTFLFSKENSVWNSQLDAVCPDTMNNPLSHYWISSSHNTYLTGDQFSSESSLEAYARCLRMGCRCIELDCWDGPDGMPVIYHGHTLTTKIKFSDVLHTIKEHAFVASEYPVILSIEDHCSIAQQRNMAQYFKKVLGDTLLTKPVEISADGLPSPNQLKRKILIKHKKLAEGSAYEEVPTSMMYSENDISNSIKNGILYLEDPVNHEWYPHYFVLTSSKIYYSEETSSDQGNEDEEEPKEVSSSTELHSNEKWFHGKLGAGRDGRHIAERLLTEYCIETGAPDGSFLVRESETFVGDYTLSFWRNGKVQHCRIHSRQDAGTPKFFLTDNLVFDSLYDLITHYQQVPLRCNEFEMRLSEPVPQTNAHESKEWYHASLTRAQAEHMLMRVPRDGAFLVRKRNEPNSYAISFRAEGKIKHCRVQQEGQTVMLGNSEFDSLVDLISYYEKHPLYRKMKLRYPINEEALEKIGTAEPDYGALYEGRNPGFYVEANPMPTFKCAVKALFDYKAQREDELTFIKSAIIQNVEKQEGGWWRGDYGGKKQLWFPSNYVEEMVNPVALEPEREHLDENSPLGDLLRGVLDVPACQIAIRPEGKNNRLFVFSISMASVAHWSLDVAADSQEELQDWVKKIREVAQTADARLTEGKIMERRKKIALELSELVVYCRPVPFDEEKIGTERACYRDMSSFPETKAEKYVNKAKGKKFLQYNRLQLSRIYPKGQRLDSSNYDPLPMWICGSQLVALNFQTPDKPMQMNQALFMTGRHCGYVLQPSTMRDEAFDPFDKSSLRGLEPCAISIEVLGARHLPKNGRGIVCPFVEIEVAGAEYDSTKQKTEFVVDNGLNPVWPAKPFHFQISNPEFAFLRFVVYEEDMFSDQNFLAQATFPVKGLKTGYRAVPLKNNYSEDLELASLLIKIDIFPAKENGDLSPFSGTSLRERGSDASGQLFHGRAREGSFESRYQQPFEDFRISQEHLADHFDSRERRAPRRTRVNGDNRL

[53] = target: 1-phosphatidylinositol 4,5-bisphosphate phosphodiesterase beta-3 (Homo sapiens, UniProt Q01970); test: Fluorescence-based biochemical high throughput dose response assay to identify inhibitors of phospholipase C isozymes (PLC-B3).
Sequence of 1-phosphatidylinositol 4,5-bisphosphate phosphodiesterase beta-3 (Q01970 whole entry): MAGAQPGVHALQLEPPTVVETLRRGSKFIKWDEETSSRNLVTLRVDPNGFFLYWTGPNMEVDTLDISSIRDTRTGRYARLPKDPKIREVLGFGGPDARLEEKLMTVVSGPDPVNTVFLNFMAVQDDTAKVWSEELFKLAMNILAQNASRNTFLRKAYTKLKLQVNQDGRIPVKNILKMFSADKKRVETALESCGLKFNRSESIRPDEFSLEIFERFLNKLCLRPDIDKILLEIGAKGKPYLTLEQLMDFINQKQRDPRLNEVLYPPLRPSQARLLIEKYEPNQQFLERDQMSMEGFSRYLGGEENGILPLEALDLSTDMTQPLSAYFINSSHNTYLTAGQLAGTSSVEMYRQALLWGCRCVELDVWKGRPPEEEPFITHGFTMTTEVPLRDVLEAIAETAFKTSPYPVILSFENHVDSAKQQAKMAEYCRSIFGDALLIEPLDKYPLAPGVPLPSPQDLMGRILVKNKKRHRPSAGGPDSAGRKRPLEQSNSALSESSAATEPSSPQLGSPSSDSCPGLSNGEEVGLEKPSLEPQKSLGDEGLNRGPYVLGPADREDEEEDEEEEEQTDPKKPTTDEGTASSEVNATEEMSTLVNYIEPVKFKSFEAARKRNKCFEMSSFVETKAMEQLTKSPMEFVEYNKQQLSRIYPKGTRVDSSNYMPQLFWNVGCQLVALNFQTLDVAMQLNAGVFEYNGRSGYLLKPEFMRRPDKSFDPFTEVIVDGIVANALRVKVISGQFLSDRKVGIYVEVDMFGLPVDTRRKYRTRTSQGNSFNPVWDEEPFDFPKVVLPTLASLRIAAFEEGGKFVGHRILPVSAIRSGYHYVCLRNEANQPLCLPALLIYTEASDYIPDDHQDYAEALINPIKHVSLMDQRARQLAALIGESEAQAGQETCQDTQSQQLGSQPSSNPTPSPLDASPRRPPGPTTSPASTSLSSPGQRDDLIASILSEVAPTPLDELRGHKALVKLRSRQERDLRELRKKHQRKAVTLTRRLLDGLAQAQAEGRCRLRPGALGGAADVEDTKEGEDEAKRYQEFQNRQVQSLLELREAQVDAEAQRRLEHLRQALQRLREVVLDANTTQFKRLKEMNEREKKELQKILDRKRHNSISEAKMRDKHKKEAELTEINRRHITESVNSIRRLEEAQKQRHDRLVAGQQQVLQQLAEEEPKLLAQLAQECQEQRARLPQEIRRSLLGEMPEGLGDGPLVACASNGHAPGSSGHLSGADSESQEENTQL

CCCCN1C=C(C(=O)OC)C(c2ccccc2Cl)C(C(=O)OC)=C1
AC50 [1]: 2.12 µM (active)

Cc1onc(-c2ccccc2Cl)c1C(=O)N(C)C1CCCCC1
AC50 [2]: 11.2 µM (active) | AC50 [3]: 3.59 µM (active) | AC50 [4]: 2.74 µM (active)

CCC1CCCCN1Cc1c(O)ccc2c(=O)c(-c3ccccc3)coc12 (stereo not drawn)
EC50 [5]: > 69.5 µM (inactive) | EC50 [6]: > 7.72 µM (active)

O=C(/C=C/c1ccco1)Nc1cccnc1Cl
AC50 [7]: > 52 µM (inactive)

COc1ccccc1CNS(=O)(=O)c1cc(-c2cc(C)no2)ccc1C(C)C
IC50 [8]: > 69.5 µM (inactive) | IC50 [9]: > 69.5 µM (inactive)

CC(=O)CSc1nnc(-c2ccco2)n1-c1ccccc1
AC50 [10]: > 30 µM (inactive)

CN(C[C@H]1N[C@@H](CO)[C@@H]1c1ccc(C2=CCCC2)cc1)C(=O)c1ccncc1
AC50 [11]: > 32 µM (inactive) | AC50 [12]: 16.2 µM (active) | AC50 [13]: 17.5 µM (active) | AC50 [14]: 10.9 µM (active) | AC50 [15]: 16.3 µM (active) | AC50 [16]: 16.2 µM (active) | AC50 [17]: 19.3 µM (active) | AC50 [18]: 6.17 µM (active) | AC50 [19]: 47.5 µM (active) | AC50 [20]: 21.1 µM (active)

COc1cccc(S(=O)(=O)Nc2ccc3c(c2)OC[C@H](C)NC[C@@H](C)[C@H](OC)CN(C)C3=O)c1
AC50 [21]: > 52 µM (inactive)

COc1ccc(N(CC2CC2)C(=O)N2CCN(c3ncc(Cl)cc3Cl)CC2)cc1
IC50 [22]: 0.1 µM (active) | IC50 [23]: 3.1 µM (active) | IC50 [24]: 0.0166 µM (active) | IC50 [25]: 2.78 µM (active)

O=C(CNC(=O)c1ccc(Cl)c(Cl)c1)N[C@@H]1CCCc2ccccc21
AC50 [26]: > 52 µM (inactive)

COC(=O)c1cc(Br)cnc1N1CCC(NC2CCCCC2OC)CC1 (stereo not drawn)
IC50 [27]: > 50 µM (inactive) | IC50 [28]: 12 µM (inactive)

COc1cccc(-n2c(CN3CCNCC3)nc3ccc([N+](=O)[O-])cc3c2=O)c1
IC50 [29]: 10.4 µM (active) | IC50 [30]: 10.4 µM (active)

c1ccc(-c2nnc(SC(c3ccccc3)c3ccccc3)o2)cc1
AC50 [31]: > 52 µM (inactive)

Cc1sc2ncnc(N/N=C/c3ccccc3O)c2c1C
AC50 [32]: 1.19 µM (active) | EC50 [33]: 20.5 µM (active) | EC50 [34]: 6.53 µM (active) | EC50 [35]: 0.993 µM (active) | AC50 [36]: 8.43 µM (active) | AC50 [37]: 9.16 µM (active) | AC50 [38]: 0.642 µM (active) | EC50 [39]: 1.22 µM (active) | EC50 [40]: 8.21 µM (active) | EC50 [41]: 5.79 µM (inconclusive) | EC50 [42]: 1.97 µM (active) | AC50 [43]: 3.28 µM (active) | EC50 [44]: 3.5 µM (active) | EC50 [45]: 4.53 µM (active) | EC50 [46]: 4.2 µM (active) | EC50 [47]: 7.52 µM (active) | EC50 [48]: 5.5 µM (inconclusive) | EC50 [49]: 1.17 µM (active) | EC50 [50]: < 0.1 µM (active) | AC50 [51]: 2.1 µM (active)

O=C(N/N=C/c1ccc(OC(=O)c2ccccc2)cc1)c1cccc(O)c1
IC50 [52]: > 122 µM (inactive) | IC50 [53]: > 122 µM (inactive)
